Source: paper PMC12622905, “CYP71D8 and CYP82A2 catalyze the last committed step in biosynthesis of glyceollin isomers in soybean” (Plant Biotechnology, 2025)

Assays:
[1] = target: T1, CYP82A24 (Glycine max, UniProt I1MI36); assay: HPLC of glyceollin III formation, recombinant yeast microsomes; assay type: biochemical; conditions: NADPH; potassium phosphate pH 7.5; 30°C
T1 construct: gene LOC100782866; synthetic gene in pYES2 (BamHI site); recombinant yeast BJ2168 microsomes with Lotus japonicus CPR
T1 sequence (I1MI36 1-521): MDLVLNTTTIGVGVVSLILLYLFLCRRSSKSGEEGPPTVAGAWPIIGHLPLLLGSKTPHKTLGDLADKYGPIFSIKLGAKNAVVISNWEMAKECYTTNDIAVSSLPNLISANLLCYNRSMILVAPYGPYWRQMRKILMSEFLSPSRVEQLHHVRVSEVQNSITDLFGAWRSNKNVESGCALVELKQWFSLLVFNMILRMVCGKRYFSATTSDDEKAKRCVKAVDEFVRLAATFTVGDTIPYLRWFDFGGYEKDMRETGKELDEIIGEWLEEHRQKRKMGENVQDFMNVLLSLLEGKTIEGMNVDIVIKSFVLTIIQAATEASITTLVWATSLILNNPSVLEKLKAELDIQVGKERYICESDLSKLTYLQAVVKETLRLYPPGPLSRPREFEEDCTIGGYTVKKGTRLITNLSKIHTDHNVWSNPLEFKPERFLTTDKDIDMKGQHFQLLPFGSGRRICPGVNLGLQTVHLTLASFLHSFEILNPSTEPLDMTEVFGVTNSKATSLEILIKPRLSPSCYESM

[2] = target: T2, CYP71D106 (Glycine max, UniProt K7K4H7); assay: HPLC of glyceollin I formation, recombinant yeast microsomes; assay type: biochemical; conditions: NADPH; potassium phosphate pH 7.5; 30°C, 5 h
T2 construct: gene LOC100817439; synthetic gene in pYES2 (BamHI site); recombinant yeast BJ2168 microsomes with Lotus japonicus CPR
T2 sequence (K7K4H7 1-503): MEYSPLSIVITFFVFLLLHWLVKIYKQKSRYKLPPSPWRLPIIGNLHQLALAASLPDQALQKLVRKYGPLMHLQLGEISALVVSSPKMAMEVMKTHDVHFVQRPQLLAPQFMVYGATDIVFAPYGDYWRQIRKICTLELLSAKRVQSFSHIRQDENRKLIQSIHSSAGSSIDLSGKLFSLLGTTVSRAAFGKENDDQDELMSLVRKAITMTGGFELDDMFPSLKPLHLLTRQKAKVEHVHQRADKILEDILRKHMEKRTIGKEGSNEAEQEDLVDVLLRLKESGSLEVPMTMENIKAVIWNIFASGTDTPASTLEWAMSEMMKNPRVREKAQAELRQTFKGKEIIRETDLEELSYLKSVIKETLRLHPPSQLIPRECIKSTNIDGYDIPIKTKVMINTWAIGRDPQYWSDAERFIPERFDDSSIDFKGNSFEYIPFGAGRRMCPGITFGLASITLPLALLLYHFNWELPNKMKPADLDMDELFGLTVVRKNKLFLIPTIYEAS

[3] = target: T3, CYP71D145 (Glycine max, UniProt A0A0R0HDK6); assay: as above; assay type: biochemical; conditions: NADPH; potassium phosphate pH 7.5; 30°C, 5 h
T3 construct: gene GLYMA_11G062500; full ORF in pYES2.1 TOPO; recombinant yeast BJ2168 microsomes with Lotus japonicus CPR
T3 sequence (A0A0R0HDK6 1-505): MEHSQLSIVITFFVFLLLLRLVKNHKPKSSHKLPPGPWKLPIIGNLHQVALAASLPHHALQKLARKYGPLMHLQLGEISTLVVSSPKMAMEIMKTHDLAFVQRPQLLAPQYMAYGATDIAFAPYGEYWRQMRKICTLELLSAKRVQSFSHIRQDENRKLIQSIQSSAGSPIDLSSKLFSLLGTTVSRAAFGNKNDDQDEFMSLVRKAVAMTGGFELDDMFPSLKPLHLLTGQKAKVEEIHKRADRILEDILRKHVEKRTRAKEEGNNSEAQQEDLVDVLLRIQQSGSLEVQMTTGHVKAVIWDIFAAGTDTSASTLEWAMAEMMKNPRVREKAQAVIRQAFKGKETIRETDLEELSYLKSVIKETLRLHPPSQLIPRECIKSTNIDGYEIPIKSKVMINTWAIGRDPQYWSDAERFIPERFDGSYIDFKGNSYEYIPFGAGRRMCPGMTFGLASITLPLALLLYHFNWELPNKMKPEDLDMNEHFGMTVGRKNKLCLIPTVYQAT

[4] = substrate: CC(C)=CCc1cc2c(cc1O)OC[C@@]1(O)c3ccc(O)cc3O[C@@H]21; assay: HPLC of glyceollin III formation, recombinant yeast microsomes, Michaelis-Menten fit; assay type: biochemical, Glycine max; conditions: 2 mM NADPH, 0.1 M potassium phosphate pH 7.5, 10% sucrose, 14 mM 2-mercaptoethanol, 30°C, 20 min
[5] = substrate: CC(C)=CCc1c(O)ccc2c1OC[C@@]1(O)c3ccc(O)cc3O[C@@H]21; assay: HPLC of glyceollin I formation, recombinant yeast microsomes, Michaelis-Menten fit; assay type: biochemical, Glycine max; conditions: 2 mM NADPH, 0.1 M potassium phosphate pH 7.5, 10% sucrose, 14 mM 2-mercaptoethanol, 30°C, 20 min

In the case of CC(C)=CCc1cc2c(cc1O)OC[C@@]1(O)c3ccc(O)cc3O[C@@H]21 [2DG, 2-dimethylallylglycinol], the “HPLC of glyceollin III formation, recombinant yeast microsomes” value [1] is reported as “CYP82A24 also exhibited GS3 activity with 2-dimethylallylglycinol”.

With CC(C)=CCc1c(O)ccc2c1OC[C@@]1(O)c3ccc(O)cc3O[C@@H]21 [4DG, 4-dimethylallylglycinol] the “HPLC of glyceollin I formation, recombinant yeast microsomes” value [2] was “CYP71D106 yielded glyceollin I and two other unknown compounds (P1 and P2)” and the “HPLC of glyceollin I formation, recombinant yeast microsomes” value [3] was “CYP71D145 produced only glyceollin I in the enzyme assay”.

B1: CYP82A2 (GS3, glyceollin III synthase) (Glycine max) (protein)
chain: MELVLNSTTIGVGVVSLILLLYLFLRGGSWKSGEEGPPTVAGAWPIIGHLPLLLGSKTPHKTLGDLADKYGPIFSIKIGAKNAVVVSNWEMAKECYTTNDIAVSSLPDLISANLLCYNRSMIVVAPYGPYWRQLRKILMSEFLSPSRVEQLHHVRVSEVQSSITELFRDWRSNKNVQSGFATVELKQWFSLLVFNMILRMVCGKRYFSASTSDDEKANRCVKAVDEFVRLAATFTVGDAIPYLRWFDFGGYENDMRETGKELDEIIGEWLDEHRQKRKMGENVQDLMSVLLSLLEGKTIEGMNVDIVIKSFVLTVIQAGTEASITTLIWATSLILNNPSVLEKLKAELDIQVGKERYICESDLSKLTYLQAVVKETLRLYPPAPLSRPREFEEDCTIGGYTVKKGTRLITNLSKIHTDHNVWSNPLEFKPERFLTTDKDIDMKGQHFQLLPFGGGRRICPGINLGLQTVRLTLASFLHSFEILNPSTEPLDMTEVFRATNTKATPLEILIKPRLSPSCYESI
notes: full ORF in pYES2.1 TOPO; yeast BJ2168 microsomes co-expressing Lotus japonicus CPR
For B1, the Km [4] was 9.5 ± 1.0 µM.

B2: CYP71D8 (GS1, glyceollin I synthase) (Glycine max) (protein)
chain: MEYSPLSIVITFFVFLLLHWLVKTYKQKSSHKLPPGPWRLPIIGNLHQLALAASLPDQALQKLVRKYGPLMHLQLGEISTLVVSSPKMAMEMMKTHDVHFVQRPQLLAPQFMVYGATDIAFAPYGDYWRQIRKICTLELLSAKRVQSFSHIRQDENKKLIQSIHSSAGSPIDLSGKLFSLLGTTVSRAAFGKENDDQDEFMSLVRKAITMTGGFEVDDMFPSLKPLHLLTRQKAKVEHVHQRADKILEDILRKHMEKRTRVKEGNGSEAEQEDLVDVLLRLKESGSLEVPMTMENIKAVIWNIFAAGTDTSASTLEWAMSEMMKNPKVKEKAQAELRQIFKGKEIIRETDLEELSYLKSVIKETLRLHPPSQLIPRECIISTNIDGYEIPIKTKVMINTWAIGRDPQYWSDADRFIPERFNDSSIDFKGNSFEYIPFGAGRRMCPGMTFGLASITLPLALLLYHFNWELPNKMKPEDLDMDEHFGMTVARKNKLFLIPTVYEAS
notes: as for B1
For B2, the Km [5] was 1.3 ± 0.2 µM.
